# In PMC4659573 (PLoS ONE, 2015):
# What was measured:
# relapsed/refractory CLL = conditions: cited from earlier work
# CDK2 = molecular target: T1, CDK2 (Homo sapiens, UniProt P24941); assay: biochemical kinase profiling (Kinase 400-Profiler, ProQinase); conditions: S1 Fig
# T1 construct: purchased ProQinase, Freiburg, Germany
# Protocol: (§1) Supplementary file pone.0143685.s001.pptx: S1 Fig Determination of selectivity of P1446A-05 was established using biochemical kinase profiling (Kinase 400-Profiler, ProQinase, Freiburg, Germany). IC50 values were determined for the 37 kinases whose activity was inhibited by ≥60% at a drug concentration of 10 μM or less (as shown). […] (PPTX) Click here for additional data file.
# CDK4 = molecular target: T2, CDK4 (Homo sapiens, UniProt P11802); assay: as above; conditions: S1 Fig
# T2 construct: purchased ProQinase, Freiburg, Germany
# Protocol: as §1
# CDK5 = molecular target: T3, CDK5 (Homo sapiens, UniProt Q00535); assay: as above; conditions: S1 Fig
# T3 construct: purchased ProQinase, Freiburg, Germany
# Protocol: as §1
# CDK6 = molecular target: T4, CDK6 (Homo sapiens, UniProt Q00534); assay: as above; conditions: S1 Fig
# T4 construct: purchased ProQinase, Freiburg, Germany
# Protocol: as §1
# CDK8 = molecular target: T5, CDK8 (Homo sapiens, UniProt P49336); assay: as above; conditions: S1 Fig
# T5 construct: purchased ProQinase, Freiburg, Germany
# Protocol: as §1
# CDK1 = molecular target: T6, CDK1 (Homo sapiens, UniProt P06493); assay: as above; conditions: S1 Fig
# T6 construct: purchased ProQinase, Freiburg, Germany
# Protocol: as §1
# [1] = test system: kinases (Kinase 400-Profiler panel); assay: kinase selectivity profiling (Kinase 400-Profiler, ProQinase); type: biochemical; conditions: at a drug concentration of 10 μM or less
# Protocol: as §1
# PIM kinase isoforms = assay: biochemical kinase profiling (S1 Fig)
# Protocol: as §1
# [2] = molecular target: T7, Glycogen synthase 3ß (GSK3ß) (Homo sapiens, UniProt P49841); assay: biochemical kinase profiling (S1 Fig)
# T7 construct: purchased ProQinase, Freiburg, Germany
# Protocol: as §1
# HCT-116 = test system: HCT-116; set-up: method as in Piramal Healthcare Ltd., proprietary information; 24; conditions: HCT-116 xenograft mouse model; ref Piramal Healthcare Ltd., proprietary information; 24; cited from earlier work
# primary CLL cells = assay: CLL cell apoptosis, Annexin V staining within the CD19+ subset, flow cytometry; type: cell-based, human; conditions: for CLL cell apoptosis with selective CDK inhibitors: alone or in combination, data not shown
# Text: Following approval by the Committee for Protection of Human Subjects at Dartmouth-Hitchcock Medical Center, the Institutional Review Board at Oregon Health and Science University and written consent of patients, peripheral blood was obtained from patients with B-CLL at the hematology clinics at the above institutions (N = 52). The mean time from CLL diagnosis to entry of study was 5 years; 39 patients (75%) were previously untreated. Isolation of peripheral blood mononuclear cells (PMBCs) was performed using standard Ficoll-Hypaque technique (Amersham, Piscataway, NJ). CLL samples had more than 90% CD5^+/CD19^+ cells, as determined by flow cytometry. CLL cells were cultured in RMPI-1640 medium supplemented with 15% fetal bovine serum, 100 U/mL penicillin, 100 μg/mL streptomycin, 2 mM L-glutamine, 25 mM HEPES, 100 μM non-essential amino acids and 1 mM sodium pyruvate (Lonza, Walkersville, MD). 10 CLL samples with 17p deletion were obtained from the CLL Center at Dana-Farber Cancer Institute. All experiments were performed with freshly isolated cells except the viability assays involving the latter, which were performed with viably frozen cells.
# CLL cell apoptosis was measured in duplicates as previously described using the ApoScreen Annexin V Apoptosis Kit. Briefly, cells were resuspended in 150 μl of Annexin V binding buffer containing 1 μl of Annexin V-PE, 1 μl of 7-aminoactinomycin D (7-AAD) and 1 μl of CD19-mAbs (Southern Biotech, Birmingham, AL) followed by flow cytometry on a MACSQuant flow cytometer (Miltenyi Biotec, San Diego, CA). Flow cytometry analysis was performed using FlowJo software (Tree Star, Ashland, OR). P1446A was provided by Piramal Healthcare Ltd. (Mumbai, India). JNK Inhibitor VIII, SP600125, SB203580, ABT-737 and PD0332991 were obtained from Selleck Chemicals (Houston, TX) and CVT-313—from Santa Cruz Biotechnology (Dallas, TX).
# Here and subsequently, apoptosis was determined by Annexin V staining within the CD19^+ subset of cells. Horizontal lines represent the mean. […] IC50 value was determined for CLL samples with mutated (N = 13) and unmutated IGHV (N = 10). […] Cytogenetics markers were determined by fluorescent in situ hybridization [no marker, 11q, trisomy 12, 13q, 17p]. Horizontal lines represent the mean. […] Since we noted a significant variation in baseline apoptosis between patient samples, normalization to the time-matched untreated controls was performed to more clearly reflect the drug-induced apoptosis. *- p<0.05 compared to untreated control.
# H-460 = test system: H-460; set-up: method as in Piramal Healthcare Ltd., proprietary information; 24; conditions: H-460 xenograft mouse model; ref Piramal Healthcare Ltd., proprietary information; 24; cited from earlier work
# T3 sequence (Q00535 whole entry): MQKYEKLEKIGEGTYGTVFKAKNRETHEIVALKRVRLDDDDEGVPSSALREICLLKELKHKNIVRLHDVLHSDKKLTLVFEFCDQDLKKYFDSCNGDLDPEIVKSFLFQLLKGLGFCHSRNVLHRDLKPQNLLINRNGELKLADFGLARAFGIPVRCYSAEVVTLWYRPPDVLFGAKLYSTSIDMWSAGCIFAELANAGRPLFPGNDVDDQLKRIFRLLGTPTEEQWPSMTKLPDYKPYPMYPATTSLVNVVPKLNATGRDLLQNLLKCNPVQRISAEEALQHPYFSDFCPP
# T3 sequence (Q15078 99-307 partner limits assumed): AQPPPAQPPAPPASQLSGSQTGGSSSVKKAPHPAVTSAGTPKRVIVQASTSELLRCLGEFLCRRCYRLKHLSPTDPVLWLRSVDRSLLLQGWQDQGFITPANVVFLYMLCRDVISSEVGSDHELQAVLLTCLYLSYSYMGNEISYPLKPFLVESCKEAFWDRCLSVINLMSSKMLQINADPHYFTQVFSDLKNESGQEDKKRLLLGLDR
# T2 sequence (P11802 whole entry): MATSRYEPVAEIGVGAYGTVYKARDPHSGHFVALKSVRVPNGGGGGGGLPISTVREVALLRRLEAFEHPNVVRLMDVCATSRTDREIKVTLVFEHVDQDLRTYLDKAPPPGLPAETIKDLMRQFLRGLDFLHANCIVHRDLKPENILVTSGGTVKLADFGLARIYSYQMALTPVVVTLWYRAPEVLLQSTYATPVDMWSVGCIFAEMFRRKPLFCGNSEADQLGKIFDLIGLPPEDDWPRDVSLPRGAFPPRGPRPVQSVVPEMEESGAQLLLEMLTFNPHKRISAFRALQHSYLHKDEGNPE
# T2 sequence (P24385 whole entry partner): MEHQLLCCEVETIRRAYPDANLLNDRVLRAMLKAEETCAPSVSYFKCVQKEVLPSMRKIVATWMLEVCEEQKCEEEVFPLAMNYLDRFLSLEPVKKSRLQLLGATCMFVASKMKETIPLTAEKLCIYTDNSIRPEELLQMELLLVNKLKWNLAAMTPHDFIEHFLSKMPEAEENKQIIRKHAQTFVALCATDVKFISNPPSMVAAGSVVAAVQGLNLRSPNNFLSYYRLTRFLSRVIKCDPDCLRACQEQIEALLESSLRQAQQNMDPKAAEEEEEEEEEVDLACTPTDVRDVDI
# T4 sequence (Q00534 whole entry): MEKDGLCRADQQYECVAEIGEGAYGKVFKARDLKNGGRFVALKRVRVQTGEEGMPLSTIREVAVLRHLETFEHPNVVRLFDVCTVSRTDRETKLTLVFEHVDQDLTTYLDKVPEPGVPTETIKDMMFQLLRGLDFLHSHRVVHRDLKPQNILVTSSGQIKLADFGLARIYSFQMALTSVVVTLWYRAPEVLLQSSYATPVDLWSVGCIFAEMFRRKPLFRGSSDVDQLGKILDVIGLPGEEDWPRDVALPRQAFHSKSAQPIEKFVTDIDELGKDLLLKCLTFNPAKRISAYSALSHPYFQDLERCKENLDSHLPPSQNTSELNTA
# T4 sequence (P24385 whole entry partner): as the sequence (P24385 whole entry partner) above
# T7 sequence (P49841 whole entry): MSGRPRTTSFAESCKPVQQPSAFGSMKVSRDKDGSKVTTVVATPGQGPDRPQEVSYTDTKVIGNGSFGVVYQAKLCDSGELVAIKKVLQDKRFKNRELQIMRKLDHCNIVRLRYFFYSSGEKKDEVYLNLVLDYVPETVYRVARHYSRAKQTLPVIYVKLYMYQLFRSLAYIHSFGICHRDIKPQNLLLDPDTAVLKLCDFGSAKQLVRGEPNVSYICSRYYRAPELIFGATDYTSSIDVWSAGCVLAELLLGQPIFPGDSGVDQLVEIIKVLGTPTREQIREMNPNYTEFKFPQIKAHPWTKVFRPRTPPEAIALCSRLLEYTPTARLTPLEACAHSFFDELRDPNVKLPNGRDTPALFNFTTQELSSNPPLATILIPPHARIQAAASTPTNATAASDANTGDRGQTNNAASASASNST
# T6 sequence (P06493 whole entry): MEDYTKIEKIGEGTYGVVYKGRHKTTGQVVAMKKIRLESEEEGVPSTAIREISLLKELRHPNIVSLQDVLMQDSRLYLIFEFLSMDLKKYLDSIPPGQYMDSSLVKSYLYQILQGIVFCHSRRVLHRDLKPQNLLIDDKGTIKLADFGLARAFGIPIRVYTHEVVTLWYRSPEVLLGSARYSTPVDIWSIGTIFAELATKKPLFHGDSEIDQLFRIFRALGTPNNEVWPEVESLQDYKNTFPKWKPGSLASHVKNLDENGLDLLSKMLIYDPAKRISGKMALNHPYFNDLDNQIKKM
# T6 sequence (P14635 whole entry partner): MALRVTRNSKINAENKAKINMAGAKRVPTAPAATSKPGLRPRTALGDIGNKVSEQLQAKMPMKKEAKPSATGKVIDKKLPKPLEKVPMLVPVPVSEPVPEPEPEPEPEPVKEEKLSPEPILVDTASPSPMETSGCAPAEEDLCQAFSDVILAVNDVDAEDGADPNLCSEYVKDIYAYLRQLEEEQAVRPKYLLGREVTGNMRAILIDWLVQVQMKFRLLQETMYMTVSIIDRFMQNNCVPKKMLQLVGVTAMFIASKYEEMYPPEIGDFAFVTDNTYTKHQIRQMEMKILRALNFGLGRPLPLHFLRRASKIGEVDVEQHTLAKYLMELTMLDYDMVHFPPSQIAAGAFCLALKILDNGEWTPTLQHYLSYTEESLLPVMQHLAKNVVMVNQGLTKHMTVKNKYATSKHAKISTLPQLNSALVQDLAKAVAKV
# T5 sequence (P49336 whole entry): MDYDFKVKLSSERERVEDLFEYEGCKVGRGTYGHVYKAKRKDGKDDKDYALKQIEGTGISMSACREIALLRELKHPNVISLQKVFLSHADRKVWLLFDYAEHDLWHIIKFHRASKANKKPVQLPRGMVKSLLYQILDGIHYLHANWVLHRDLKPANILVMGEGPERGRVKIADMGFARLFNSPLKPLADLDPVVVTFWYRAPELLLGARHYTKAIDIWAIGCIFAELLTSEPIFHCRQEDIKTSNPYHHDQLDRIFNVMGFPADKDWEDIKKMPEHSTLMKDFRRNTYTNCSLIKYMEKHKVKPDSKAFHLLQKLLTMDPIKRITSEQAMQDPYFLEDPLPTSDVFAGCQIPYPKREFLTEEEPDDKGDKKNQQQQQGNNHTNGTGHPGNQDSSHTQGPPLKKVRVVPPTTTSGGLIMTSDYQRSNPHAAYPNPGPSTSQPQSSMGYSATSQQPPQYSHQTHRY
# T5 sequence (P24863 whole entry partner): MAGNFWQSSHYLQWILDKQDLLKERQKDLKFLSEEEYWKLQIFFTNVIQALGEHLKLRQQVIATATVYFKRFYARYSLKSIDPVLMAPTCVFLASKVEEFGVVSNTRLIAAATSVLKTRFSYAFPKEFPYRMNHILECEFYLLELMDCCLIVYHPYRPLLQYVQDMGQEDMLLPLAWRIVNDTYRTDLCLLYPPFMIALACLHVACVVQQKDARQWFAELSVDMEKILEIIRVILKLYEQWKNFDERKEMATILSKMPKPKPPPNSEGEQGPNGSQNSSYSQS
structure (smiles),measurement,setting,value
CN1CC[C@H](c2c(O)cc(O)c3c(=O)cc(-c4ccccc4Cl)oc23)[C@H](O)C1 [flavopiridol],patients with responses,relapsed/refractory CLL,53%
CN1CC[C@@H](c2c(O)cc(O)c3c(=O)cc(-c4ccc(C(F)(F)F)cc4Cl)oc23)[C@@H]1CO [P1446A],IC50,CDK2,180 nM
same,IC50,CDK4,90 nM
same,IC50,CDK5,210 nM
same,IC50,CDK6,210 nM
same,IC50,CDK8,12 nM
same,IC50,CDK1,25 nM
same,number of kinases whose activity was inhibited by ≥60%,[1],37
same,concentration range of inhibition in vitro,PIM kinase isoforms,nanomolar concentration range
same,concentration range of inhibition in vitro,[2],nanomolar concentration range
same,tumor growth in xenograft,HCT-116,restricted growth
same,cells that underwent apoptosis,"primary CLL cells; 0.5 μM, 24 hour incubation, N = 10, vehicle control 29.2±2.0%",47.2±3.5%
same,apoptosis of CLL cells,"primary CLL cells; 1.5 μM, 24 hour incubation, N = 10",83.3±3.3%
same,tumor growth in xenograft,H-460,restricted growth
CCc1cnn2c(NCc3ccc[n+]([O-])c3)cc(N3CCCC[C@H]3CCO)nc12 [Dinaciclib],overall response rate,relapsed/refractory CLL; patients with relapsed/refractory CLL,54%
"CC(=O)c1c(C)c2cnc(Nc3ccc(N4CCNCC4)cn3)nc2n(C2CCCC2)c1=O [PD0332991, reference compound]",CLL cell apoptosis with selective CDK inhibitors,primary CLL cells,did not lead to CLL cell apoptosis
"COc1ccc(CNc2nc(N(CCO)CCO)nc3c2ncn3C(C)C)cc1 [CVT-313, reference compound]",CLL cell apoptosis with selective CDK inhibitors,primary CLL cells,did not lead to CLL cell apoptosis
